# Measurements reported in US11076597B2, “High stress resistant plant growth regulator and preparation method and use thereof” (SHANGHAI INSTITUTES FOR BIOLOGICAL SCIENCES, CHINESE …, priority 2015, dated 2021).
# “Also recorded” adds a separate entry of the source.
# Key:
# cotton = assay: Leaf transpiration experiment, cotton; format: in vivo; details: 20 μM spray 25 days after sowing, two days after spraying; FIG. 6
# Procedure: ABA synthesis mutant aba2-1 was used in Arabidopsis leaf transpiration experiment. […] Therefore, this mutant is used to exclude the effect of endogenous ABA on the transpiration experiment. The plants were sprayed with a solution containing 0.05% tween-20 and corresponding concentrations of (+)-ABA/0224/0304/0706/0715/0428 or 0.05% Tween-20 and 0.05% DMSO (control) after three weeks of continuous watering with an amount of 1.2 ml/pot. Leaf transpiration experiments of soybeans were conducted at 26° C. with long-day lighting and soybeans were sprayed with a solution containing 0.1% tween-20 and 20 μM (+)-ABA/0224/0304 compound or 0.1% Tween-20 and 0.05% DMSO (control) 14 days after sowing with an amount of 4 ml/pot; the leaf transpiration experiments of cottons were sprayed with a solution containing 0.1% tween-20 and 20 μM (+)-ABA/0224 compound or 0.1% Tween-20 and 0.05% DMSO, respectively, 25 days after sowing with an amount of 4 ml/pot; the leaf transpiration experiments of wheats were sprayed with a solution containing 0.1% tween-20 and 100 μM (+)-ABA/0224 compound or 0.1% Tween-20 and 0.05% DMSO (control) 18 days after sowing with an amount of 6 ml/pot. […]
# In this experiment, the temperature change of leaf surface was observed and recorded by an infrared camera, thus reflecting the strength of plant transpiration. […]
# [1] = target: T1, PYR1 receptor-HAB1 protein phosphatase complex (Arabidopsis thaliana, UniProt O49686); assay: AlphaScreen assay, PYR1 receptor binding to HAB1; format: biochemical; details: fraction of the EC50 of ABA; FIG. 2a, 2h
# T1 construct: made in house; host or cells: E. coli BL21 (DE3)
# T1 sequence (O49686 1-191): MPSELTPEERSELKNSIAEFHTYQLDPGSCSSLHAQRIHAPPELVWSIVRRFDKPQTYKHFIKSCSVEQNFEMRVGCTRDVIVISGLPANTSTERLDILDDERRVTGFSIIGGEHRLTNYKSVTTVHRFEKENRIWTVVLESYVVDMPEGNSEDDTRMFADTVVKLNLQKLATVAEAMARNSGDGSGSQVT
# T1 sequence (Q9CAJ0 172-511 partner limits assumed): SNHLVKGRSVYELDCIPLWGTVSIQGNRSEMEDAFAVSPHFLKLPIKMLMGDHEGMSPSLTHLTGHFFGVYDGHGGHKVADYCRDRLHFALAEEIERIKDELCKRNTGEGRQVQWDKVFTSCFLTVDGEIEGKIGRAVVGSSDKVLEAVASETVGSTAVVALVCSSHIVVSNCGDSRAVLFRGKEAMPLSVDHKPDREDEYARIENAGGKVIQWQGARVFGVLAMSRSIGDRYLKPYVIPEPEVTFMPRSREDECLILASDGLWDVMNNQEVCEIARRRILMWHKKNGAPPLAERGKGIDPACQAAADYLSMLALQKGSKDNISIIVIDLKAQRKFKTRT
# Procedure: (§1) The AlphaScreen kit (available from Perkin Elmer) was used, and the method was as follows: a 10× buffer (50 mM MOPS, pH 7.4, 50 mM NaF, 50 mM CHAPS, 0.1 mg/ml bovine serum albumin) diluted at 1:10, each of 100 nM HAB1 with Biotin tag sequence and PYR1/PYL1/PYL2/PYL7/GmPYL6/OsPYL2 protein with dual tags of 6×His and SUMO sequences, corresponding concentrations of (+)-ABA/0224/0304/0706/0708/0713/0715/0428/NC0F4, and 5 μg/ml donor beads and acceptor beads (available from Perkin Elmer) were contained in 150 μl of experimental system. After incubating for 1.5 hours at room temperature in the dark, it was placed into an Envision Plate Reader (available from Perkin Elmer) under the programmed AlphaScreen procedure for readings.
# (§2) AlphaScreen technology was used to test the ability of the compounds of the present invention to promote PYL receptor binding to PP2C protein phosphatase (HAB1).
# [2] = target: T2, PYL7 receptor-HAB1 protein phosphatase complex (Arabidopsis thaliana, UniProt Q1ECF1); assay: AlphaScreen assay, PYL7 receptor binding to HAB1; format: biochemical; set-up: unit not given beside the values; details: fraction of the EC50 of ABA; FIG. 2d
# T2 construct: made in house; host or cells: E. coli BL21 (DE3)
# T2 sequence (Q1ECF1 1-211): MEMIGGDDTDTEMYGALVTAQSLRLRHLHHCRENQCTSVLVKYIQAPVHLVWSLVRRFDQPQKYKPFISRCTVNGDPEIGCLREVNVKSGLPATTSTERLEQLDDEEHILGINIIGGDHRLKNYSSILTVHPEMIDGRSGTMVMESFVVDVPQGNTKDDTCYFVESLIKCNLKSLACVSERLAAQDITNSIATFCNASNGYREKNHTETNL
# T2 sequence (Q9CAJ0 172-511 partner limits assumed): T1 sequence (Q9CAJ0 172-511 partner limits assumed)
# Procedure: as §1, §2
EC50 value with PYR1 receptor-HAB1 complex as fraction of that of ABA [1],EC50 value with PYL7 receptor-HAB1 complex as fraction of that of ABA [2],Compound,leaf temperature versus DMSO control (leaf transpiration) (cotton)
,,"CC1=CC(=O)CC(C)(C)[C@@]1(O)/C=C/C(C)=C\C(=O)O [ABA, Abscisic Acid, reference compound]",had no difference from that in the control group
1/24,1/10,CCCN1C(=O)OC(C)(C)c2cc(NS(=O)(=O)Cc3c(F)c(F)c(C)c(F)c3F)ccc21 [Compound 0304],
1/40,1/10,CCCN1C(=O)OC(C)c2cc(NS(=O)(=O)Cc3c(F)c(F)c(C)c(F)c3F)ccc21 (stereo not drawn) [Compound 0224],significantly reduce the transpiration rate of the cotton leaf; also recorded: still significant higher than that of plants in DMSO-sprayed control group
